Six compounds from ChEMBL document CHEMBL1155367, “Design and synthesis of new stabilized combi-triazenes for targeting solid tumors expressing the epidermal growth factor receptor (EGFR) or its closest homologue HER2” (Bioorg Med Chem Lett, 2009) can be followed below.

Series [1] concerns the target Epidermal growth factor receptor (Homo sapiens, UniProt P00533). The series can be described thus: Inhibition of EGFR-mediated poly(L-glutamic acid L-tyrosine) phosphorylation.
For the next series, the system named is NIH3T3. Put plainly: Growth inhibition of mouse NIH/3T3 cells expressing erB2 gene. It is filed as functional, cell-based.
For a further series, the system named is MDA-MB-468. The series can be described thus: Induction of DNA damage in human MDA-MB-468 cells assessed as tail movements by comet assay. It is filed as functional, cell-based.
Series [2] in a line: Stability assessed as degradation to FD105 at 37 degC by fluorescence. It is filed as physicochemical.

Calls of active or inactive are those of the source. The rule behind the calls is not given here.

Epidermal growth factor receptor, sequence (P00533 whole entry): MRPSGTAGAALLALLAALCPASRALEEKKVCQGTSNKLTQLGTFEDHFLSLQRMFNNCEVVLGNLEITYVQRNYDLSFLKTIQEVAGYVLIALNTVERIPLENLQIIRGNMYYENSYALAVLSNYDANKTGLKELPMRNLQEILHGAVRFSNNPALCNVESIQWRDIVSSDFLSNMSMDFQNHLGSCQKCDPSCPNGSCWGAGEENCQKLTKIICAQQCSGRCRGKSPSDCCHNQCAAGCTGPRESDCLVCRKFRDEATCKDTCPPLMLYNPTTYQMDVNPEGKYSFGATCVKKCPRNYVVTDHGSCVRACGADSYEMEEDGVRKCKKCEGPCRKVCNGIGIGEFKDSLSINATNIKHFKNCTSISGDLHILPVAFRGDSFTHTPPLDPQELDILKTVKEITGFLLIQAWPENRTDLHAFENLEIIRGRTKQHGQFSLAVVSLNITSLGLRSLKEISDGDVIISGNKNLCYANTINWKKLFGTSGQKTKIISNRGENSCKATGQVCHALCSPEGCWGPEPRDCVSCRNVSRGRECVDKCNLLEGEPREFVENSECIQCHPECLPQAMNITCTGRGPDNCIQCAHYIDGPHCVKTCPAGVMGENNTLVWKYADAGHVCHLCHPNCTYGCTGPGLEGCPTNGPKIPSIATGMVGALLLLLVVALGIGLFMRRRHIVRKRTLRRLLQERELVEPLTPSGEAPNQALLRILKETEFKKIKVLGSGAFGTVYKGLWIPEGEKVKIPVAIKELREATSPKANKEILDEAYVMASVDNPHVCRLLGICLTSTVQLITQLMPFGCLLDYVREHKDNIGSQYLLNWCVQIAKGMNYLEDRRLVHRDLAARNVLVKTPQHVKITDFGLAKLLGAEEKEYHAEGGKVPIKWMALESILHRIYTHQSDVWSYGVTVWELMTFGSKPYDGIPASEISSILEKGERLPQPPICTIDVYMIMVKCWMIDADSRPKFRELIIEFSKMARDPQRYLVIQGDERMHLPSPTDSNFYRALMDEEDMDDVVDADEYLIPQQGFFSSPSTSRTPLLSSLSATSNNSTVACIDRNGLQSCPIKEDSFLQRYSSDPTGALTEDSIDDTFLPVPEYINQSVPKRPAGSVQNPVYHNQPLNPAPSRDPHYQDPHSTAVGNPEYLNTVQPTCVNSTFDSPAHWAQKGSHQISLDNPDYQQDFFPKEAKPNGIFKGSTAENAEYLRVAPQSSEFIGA

As usually defined, the IC50 is the point on the concentration scale where inhibition reaches its midpoint. A lower IC50 goes with higher potency. For `C=COC(=O)N(C)/N=N/c1ccc2ncnc(Nc3cccc(Cl)c3)c2c1`, the IC50 in series [1] was found to be 720 nM; in the series with NIH3T3, 2370 nM. Moreover, the result in the series with MDA-MB-468 was inactive. The Stability entry in series [2] is “Stable”.

For `CN(/N=N/c1ccc2ncnc(Nc3cccc(Cl)c3)c2c1)C(=O)OCCl`, the IC50 turned out to be 390 nM in series [1] and 4940 nM in the series on NIH3T3. Also, the Activity result in the series on MDA-MB-468 is “Dose-dependent effect”.

The compound `CC(=O)OCN(C)/N=N/c1ccc2ncnc(Nc3cccc(Cl)c3)c2c1` registered an IC50 in series [1] of 240 nM. Further, the Stability entry in series [2] is reported as “Unstable”.

As for `CC(=O)OCOC(=O)N(C)/N=N/c1ccc2ncnc(Nc3cccc(Cl)c3)c2c1`, the IC50 is 630 nM in series [1] and 1500 nM with NIH3T3. The Activity result with MDA-MB-468 is “Dose-dependent effect”. Also, the Stability result in series [2] is listed as “Stable”.

As to `C=COC(=O)N(CCN(C)C)/N=N/c1ccc2ncnc(Nc3cccc(Cl)c3)c2c1`, the IC50 was determined as 180 nM in series [1] and 2280 nM in the series with NIH3T3. In the series with MDA-MB-468, the Activity result is “Dose-dependent effect”.

Take `CN(/N=N/c1ccc2ncnc(Nc3cccc(Cl)c3)c2c1)C(=O)Oc1ccc([N+](=O)[O-])cc1`: the results for the IC50 (in series [1]; in the series on NIH3T3) were 770 nM and 3790 nM, respectively. In addition, the Activity result in the series on MDA-MB-468 is “Dose-dependent effect”. Also, in series [2], the Stability result is “Stable”.
